Measured values reported in US10472341B2, “Bicyclic tetrahydrothiazepine derivatives useful for the treatment of neoplastic and/or infectious diseases” (APEIRON BIOLOGICS AG, priority 2015, dated 2019).
Structures can show the parent of a compound that is named as a salt. Where two headings read alike, the source gives them in different places.

Key:
Assay type in all cases: cell-based
[1] = test system: aCD3/aCD28-stimulated human PBMCs; assay: Cytokine production in aCD3/aCD28 stimulated human PBMCs; settings: PBMC, 18 h
How it was run: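 Compound effects measured in buffy-coat PBMCs activated 18 h at 37° C by 1 μg/mL each of soluble anti-CD3 (OKT3) and anti-CD28 (28.2), 1e6 cells/mL. Cytokines in harvested supernatants read by MSD or HTRF.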

CD4 T cells = assay: CD69 expression on aCD3/aCD28 stimulated isolated human CD4 T cells (flow cytometry); settings: 24 h after TCR stimulation, read-out: Activity Class CD69 (CD4)
Protocol: (§1) Isolated T cells were plated in Xvivo medium at 1.5*10 ^5 cells per in 96 well culture plates and TCR-stimulated with anti-CD3/28 mAbs in the presence of compound as indicated. Cytokine production was determined at 24 h or 48 h following TCR stimulation in cell culture supernatants using commercially available ELISA kits (BD and eBioscience) as recommended by the manufacturer. T cell proliferation and CD25 expression (CD25-PC5 reagent purchased from Beckman Coulter) was determined by flow cytometry (Beckman-Coulter FC500) and analysed with Kaluza Software. For measurement of CD69 expression, isolated CD4 and CD8 T cells were plated in Xvivo medium at […] per in 96 well culture plates and TCR-stimulated with anti-CD3/28 mAbs in the presence of compound. CD69 expression was determined at 24 h following TCR stimulation by flow cytometry (CD4eF450, CD8APCeF780 and CD69-PC7 reagent purchased from eBioscience) and analysed with Kaluza Software.
(§2) For measurement of CD69 expression, isolated CD4 and CD8 T cells were plated in Xvivo medium at 80000 cells per in 96 well culture plates and TCR-stimulated with anti-CD3/28 mAbs in the presence of compound. CD69 expression was determined at 24 h following TCR stimulation by flow cytometry (CD4eF450, CD8APCeF780 and CD69-PC7 reagent purchased from eBioscience) and analysed with Kaluza Software.

CD8 T cells = assay: CD69 expression on aCD3/aCD28 stimulated isolated human CD8 T cells (flow cytometry); settings: T-cell, 24 h after TCR stimulation, read-out: Activity Class CD69 (CD8)
Protocol: as §1, §2

[2] = enhancement of IFN-γ production, read-out: Activity Class IFN-γ
[3] = enhancement of IL-2 production, read-out: Activity Class IL-2

EC50 (CD4 T cells)	EC50 (CD8 T cells)	Structure (SMILES)	EC50 [1, 2]	EC50 [1, 3]
< 1580 nM	< 1580 nM	N[C@H]1CS(=O)(=O)c2cc(F)c(C(=O)NCCCC(F)(F)F)cc2N(Cc2ccc(F)cc2)C1=O [Example 129, (3R)-3-amino-8-fluoro-5-[(4-fluorophenyl)methyl]-1,1,4-trioxo-N-(4,4,4-trifluorobutyl)-2,3,4,5-tetrahydro-1λ^6,5-benzothiazepine-7-carboxamide hydrochloride]	< 1580 nM	1580 to 5010 nM
> 5010 nM	1580 to 5010 nM	N[C@H]1CS(=O)(=O)c2cc(F)c(C(=O)NC3CC3(F)F)cc2N(Cc2ccc(F)cc2)C1=O (stereo partly drawn) [Example 130, (3R)-3-amino-N-(2,2-difluorocyclopropyl)-8-fluoro-5-[(4-fluorophenyl)methyl]-1,1,4-trioxo-2,3,4,5-tetrahydro-1λ^6,5-benzothiazepine-7-carboxamide hydrochloride]	1580 to 5010 nM	> 5010 nM
> 5010 nM	> 5010 nM	CCCCNC(=O)c1cc2c(cc1F)SC[C@H](N)C(=O)N2Cc1ccc(F)cc1 [Example 131, (3R)-3-amino-N-butyl-8-fluoro-5-[(4-fluorophenyl)methyl]-4-oxo-2,3,4,5-tetrahydro-1,5-benzothiazepine-7-carboxamide hydrochloride]	1580 to 5010 nM	> 5010 nM
> 5010 nM	> 5010 nM	N[C@H]1CSc2cc(F)c(C(=O)NCc3ccccc3)cc2N(Cc2ccc(F)cc2)C1=O [Example 132, (3R)-3-amino-N-benzyl-8-fluoro-5-[(4-fluorophenyl)methyl]-4-oxo-2,3,4,5-tetrahydro-1,5-benzothiazepine-7-carboxamide hydrochloride]	1580 to 5010 nM	> 5010 nM
< 1580 nM	< 1580 nM	CCCCNC(=O)c1cc2c(cc1F)S(=O)(=O)C[C@H](N)C(=O)N2Cc1ccc(F)cc1 [Example 133, (3R)-3-amino-N-butyl-8-fluoro-5-[(4-fluorophenyl)methyl]-1,1,4-trioxo-2,3,4,5-tetrahydro-1λ^6,5-benzothiazepine-7-carboxamide hydrochloride]	< 1580 nM	1580 to 5010 nM
< 1580 nM	< 1580 nM	N[C@H]1CS(=O)(=O)c2cc(F)c(C(=O)NCc3ccccc3)cc2N(Cc2ccc(F)cc2)C1=O [Example 134, (3R)-3-amino-N-benzyl-8-fluoro-5-[(4-fluorophenyl)methyl]-1,1,4-trioxo-2,3,4,5-tetrahydro-1λ^6,5-benzothiazepine-7-carboxamide hydrochloride]	< 1580 nM	< 1580 nM
1580 to 5010 nM	1580 to 5010 nM	N[C@H]1CS(=O)(=O)c2cc(F)c(C(=O)NCCC3CCOCC3)cc2N(Cc2ccc(Cl)cc2)C1=O [Example 135, (3R)-3-amino-5-[(4-chlorophenyl)methyl]-8-fluoro-N-[2-(oxan-4-yl)ethyl]-1,1,4-trioxo-2,3,4,5-tetrahydro-1λ^6,5-benzothiazepine-7-carboxamide hydrochloride]	< 1580 nM	1580 to 5010 nM
< 1580 nM	< 1580 nM	N[C@H]1CS(=O)(=O)c2cc(F)c(C(=O)NCCCC(F)(F)F)cc2N(Cc2ccccc2)C1=O [Example 136, (3R)-3-amino-5-benzyl-8-fluoro-1,1,4-trioxo-N-(4,4,4-trifluorobutyl)-2,3,4,5-tetrahydro-1λ^6,5-benzothiazepine-7-carboxamide hydrochloride]	< 1580 nM	< 1580 nM
< 1580 nM	< 1580 nM	COc1ccc(CNC(=O)c2cc3c(cc2F)S(=O)(=O)C[C@H](N)C(=O)N3Cc2ccc(Cl)cc2)cc1 [Example 137, (3R)-3-amino-5-[(4-chlorophenyl)methyl]-8-fluoro-N-[(4-methoxyphenyl)methyl]-1,1,4-trioxo-2,3,4,5-tetrahydro-1λ^6,5-benzothiazepine-7-carboxamide hydrochloride]	< 1580 nM	< 1580 nM
1580 to 5010 nM	> 5010 nM	N[C@H]1CS(=O)(=O)c2cc(F)c(C(=O)NCC3CCOCC3)cc2N(Cc2ccc(F)cc2)C1=O [Example 139, (3R)-3-amino-8-fluoro-5-[(4-fluorophenyl)methyl]-N-[(oxan-4-yl)methyl]-1,1,4-trioxo-2,3,4,5-tetrahydro-1λ^6,5-benzothiazepine-7-carboxamide hydrochloride]	1580 to 5010 nM	1580 to 5010 nM
1580 to 5010 nM	> 5010 nM	N[C@H]1CS(=O)(=O)c2cc(F)c(C(=O)NC3CC(F)(F)C3)cc2N(Cc2ccc(F)cc2)C1=O [Example 140, (3R)-3-amino-N-(3,3-difluorocyclobutyl)-8-fluoro-5-[(4-fluorophenyl)methyl]-1,1,4-trioxo-2,3,4,5-tetrahydro-1λ^6,5-benzothiazepine-7-carboxamide hydrochloride]	1580 to 5010 nM	1580 to 5010 nM
< 1580 nM	< 1580 nM	COc1ccc(CN2C(=O)[C@@H](N)CS(=O)(=O)c3cc(F)c(C(=O)NCCCC(F)(F)F)cc32)cc1 [Example 141, (3R)-3-amino-8-fluoro-5-[(4-methoxyphenyl)methyl]-1,1,4-trioxo-N-(4,4,4-trifluorobutyl)-2,3,4,5-tetrahydro-1λ^6,5-benzothiazepine-7-carboxamide]	< 1580 nM	< 1580 nM
> 5010 nM	> 5010 nM	COc1ccc(CN2C(=O)[C@@H](N)CS(=O)(=O)c3cc(F)c(C(=O)NCC4CCOCC4)cc32)cc1 [Example 142, (3R)-3-amino-8-fluoro-5-[(4-methoxyphenyl)methyl]-N-[(oxan-4-yl)methyl]-1,1,4-trioxo-2,3,4,5-tetrahydro-1λ^6,5-benzothiazepine-7-carboxamide]	1580 to 5010 nM	1580 to 5010 nM
1580 to 5010 nM	> 5010 nM	COc1ccc(CN2C(=O)[C@@H](N)CS(=O)(=O)c3cc(F)c(C(=O)NC4CC4(F)F)cc32)cc1 (stereo partly drawn) [Example 143, (3R)-3-amino-N-(2,2-difluorocyclopropyl)-8-fluoro-5-[(4-methoxyphenyl)methyl]-1,1,4-trioxo-2,3,4,5-tetrahydro-1λ^6,5-benzothiazepine-7-carboxamide]	1580 to 5010 nM	1580 to 5010 nM
< 1580 nM	< 1580 nM	N[C@H]1CS(=O)(=O)c2ccc(C(=O)NC3CC(F)(F)C3)cc2N(Cc2ccc(Cl)cc2)C1=O [Example 145, (3R)-3-amino-5-[(4-chlorophenyl)methyl]-N-(3,3-difluorocyclobutyl)-1,1,4-trioxo-2,3,4,5-tetrahydro-1λ^6,5-benzothiazepine-7-carboxamide]	1580 to 5010 nM	1580 to 5010 nM
1580 to 5010 nM	1580 to 5010 nM	N[C@H]1CS(=O)(=O)c2cc(F)c(C(=O)N[C@H]3CCC(F)(F)C3)cc2N(Cc2ccc(Cl)cc2)C1=O [Example 146, (3R)-3-amino-5-[(4-chlorophenyl)methyl]-N-[(1S)-3,3-difluorocyclopentyl]-8-fluoro-1,1,4-trioxo-2,3,4,5-tetrahydro-1λ^6,5-benzothiazepine-7-carboxamide]	< 1580 nM	< 1580 nM
> 5010 nM	> 5010 nM	COc1ccc(CN2C(=O)[C@@H](N)CS(=O)(=O)c3ccc(C(=O)NCCCC(F)(F)F)cc32)cc1 [Example 150, (3R)-3-amino-5-[(4-methoxyphenyl)methyl]-1,1,4-trioxo-N-(4,4,4-trifluorobutyl)-2,3,4,5-tetrahydro-1λ^6,5-benzothiazepine-7-carboxamide]	1580 to 5010 nM	1580 to 5010 nM
1580 to 5010 nM	< 1580 nM	COc1ccc(CNC(=O)c2ccc3c(c2)N(Cc2ccc(OC)cc2)C(=O)[C@@H](N)CS3(=O)=O)cc1 [Example 151, (3R)-3-amino-N,5-bis[(4-methoxyphenyl)methyl]-1,1,4-trioxo-2,3,4,5-tetrahydro-1λ^6,5-benzothiazepine-7-carboxamide]	1580 to 5010 nM	1580 to 5010 nM
1580 to 5010 nM	1580 to 5010 nM	COc1ccc(CNC(=O)c2ccc3c(c2)N(Cc2ccccc2)C(=O)[C@@H](N)CS3(=O)=O)cc1 [Example 152, (3R)-3-amino-5-benzyl-N-[(4-methoxyphenyl)methyl]-1,1,4-trioxo-2,3,4,5-tetrahydro-1λ^6,5-benzothiazepine-7-carboxamide]	1580 to 5010 nM	> 5010 nM
< 1580 nM	< 1580 nM	COc1ccc(CNC(=O)c2ccc3c(c2)N(Cc2ccc(Cl)cc2)C(=O)[C@@H](N)CS3(=O)=O)cc1 [Example 153, (3R)-3-amino-5-[(4-chlorophenyl)methyl]-N-[(4-methoxyphenyl)methyl]-1,1,4-trioxo-2,3,4,5-tetrahydro-1λ^6,5-benzothiazepine-7-carboxamide]	< 1580 nM	< 1580 nM
